Reference: US20060246124A1, “Methods of treating cancer with lipid-based platinum compound formulations administered intraperitoneally” (priority 2004, published 2006)

How the values were obtained:
stage III ovarian cancer = conditions: ip, patients with stage III ovarian cancer and residual tumor masses of 2 cm or less; cited from earlier work
[1] = Pharmacokinetics and organ distribution (Part II), platinum by ICP-MS; type: in vivo, mice; conditions: ip
Experimental: Sixty ICR mice (female, 7 weeks old) were divided into 4 groups. […] At each designed time point, three to four mice were anaesthetized with 70 mg/kg of Nembutal ip (e.g., 3, 20, and 40 min, and 2, 8, 24, 48, and 72 h). […] Organs including duodenum, kidney, liver, lung, and spleen were resected from the mice. The blood and organ samples were homogenized in distilled water (4-fold of the sample weight) and digested with nitric acid. The platinum concentration in each sample was measured by Inductively Coupled Plasma-Mass Spectrometer (ICP-MS). The pharmacokinetics profiles (FIGS. 3-7, all Y-axes are concentration of μg platinum in one gram of tissue or fluid per mg of injected dose) and parameters (Tables 3 and 4) of each formulation were simulated and calculated.

L1210 cells = test: Survival of mice with implanted L1210 tumor cells: cyclic temperature vs non cyclic temperature cisplatin liposomes; type: in vivo; conditions: single bolus ip 6 mg/kg on day 5, L1210, DBA/2 mice
Experimental: DPPC (3.0 g) and cholesterol (1.2 g) were co-dissolved in 20 mL of ethanol. • 2.
Female DBA/2 mice (Charles Rivers) were used. Thirty (30) mice were injected with 2×10^6 L1210 cells ip on Day 0. On day 1, the mice were weighed and randomized into 3 groups of 10 mice. […] Survival was monitored. Mice were weighed daily after day 10. Mice that lost 20% or greater of their starting weight were euthanized by CO2 inhalation. The date of their death was recorded on data sheets. Median survival was calculated by Prism GraphPad.

L1210 tumor cells = test: In vivo antitumor activity in Murine L1210 tumor model (ascitic L1210 leukemia), ip administration; conditions: L1210, B6D2F1 mice
Experimental: The test articles and materials are presented below in Table 5.
Day 0, inoculate 6 groups of 5 male mice and 1 group of 9 male control animals with one million viable L1210 cells per mouse by ip injection. • 2. […] Each dose level represents one group of five mice. […] Control group contains 9 untreated mice.
3. Mice were monitored daily for deaths and or signs of clinical illness. The date of euthanasia was recorded for the purpose of experimental end-points. A total of 39 mice divided into 7 groups were studied. At the end point survival was assessed and expressed as % T/C (percent median survival of treated group: median survival of control group.)

mice = test: Maximum tolerated dose (MTD), single bolus ip injection; type: in vivo
[2] = ip dose 3 mg/kg (1 mg/kg on days 3, 7, 11)
[3] = ip dose 4.5 mg/kg ([…] on days 3, 7, 11)

Compound: N.N.[Cl][Pt][Cl] [Cisplatin, cis-diamine-dichloroplatinum (II)]
- survival compared with iv cisplatin (stage III ovarian cancer): significantly improves survival
- Circulation AUC ([1]; blood, normalised to injected dose): 7.08 µg·h/g/µg
- Organ AUC, Duodenum ([1]; duodenum): 8.32 µg·h/g/µg
- Organ AUC, Heart ([1]; heart): 2.67 µg·h/g/µg
- Organ AUC, Kidney ([1]; kidney): 8.61 µg·h/g/µg
- Organ Cmax, Kidney ([1]; kidney): 0.46 µg/g/µg
- Organ AUC, Liver ([1]; liver): 28.99 µg·h/g/µg
- Organ Cmax, Liver ([1]; liver): 0.71 µg/g/µg
- Organ AUC, Lung ([1]; lung): 29.00 µg·h/g/µg
- Organ Cmax, Lung ([1]; lung): 1.61 µg/g/µg
- Organ AUC, Spleen ([1]; spleen): 10.45 µg·h/g/µg
- Median survival (L1210 cells): 19.5 days
- % T/C (L1210 tumor cells; [2]): 196%
- Median survival (L1210 tumor cells; [2]): 26.5 days
- % T/C (L1210 tumor cells; [3]): 218%
- Median survival (L1210 tumor cells; [3]): 29.5 days
- MTD (mice): 9 mg/kg
